Data: patent US20170273921A1, “3,5,N-TRIHYDROXY-ALKANAMIDE OR 3,5,N-TRIHYDROXY-6-ALKENAMIDE DERIVATIVE ALONE OR IN COMBINATION WITH CHEMOTHERAPEUTIC AGENT FOR TREATING CANCER” (National Taiwan University, priority 2014, published 2017)
Like-named read-outs stand apart in the source and are kept apart here.

Assays:
[1] = system: various human cancer cell lines; assay: Cell viability by MTT cell proliferation assay; assay type: cell-based
Experimental: Human […] cancer cells (Hela) and breast cancer cells (MD-MBA-231, MCF7) were seeded at 3000 cells/well in 96-well plates and maintained for 14-16 hours, then treated with JMF3086 or gemcitabine or both. After 72 hours, cells were washed with PBS then added medium containing MTT reagent (Sigma) at a final concentration of 0.5 mg/ml for 4 hours. Then, the medium was replaced with 200 μl of DMSO for 30 minutes, and using an ELISA reader (570 nm) to get the absorbance density values. The 50% of inhibition concentration (IC50) of death cells was calculated.
Effect of three 3,5,N-trihydroxy-alkanamide derivatives, JMF3086, (3R,5R)-7-{(1S,2S,6R,8S,8aR)-hexahydro-2,6-dimethyl-8-[2-dimethylbutyryloxy]naphthalenyl}-3,5-dihydroxy-N-hydroxyheptanamide (also referred to as JMF3171), and (3R,5R)-7-{[2-(4-fluoro-phenyl)-5isopropyl-3-phenyl-4-phenylcarbamoylpyrrol-1-yl]-3,5-dihydroxy-N-hydroxyheptanamide (also referred to as JMF3173) and the corresponding statins on the cell viability of various human cancer cell lines was determined by cell proliferation assay as described in Example 4. Specifically, cancer cells were treated with various concentrations of test compounds for 72 hours, and cell viability was measured by MTT assay. The half maximal inhibitory concentration (IC50) values for individual cell line were calculated.

[2] = system: A549-Luc cells; assay: Orthotopic lung cancer model (A549-Luc, IVIS imaging); assay type: in vivo, NOD/SCID mice; conditions: single agent; JMF3086 oral 5 days/week or cisplatin i.p. once a week, two weeks; FIG. 3B
Experimental: In this Example, we use A549 cells [non-small cell lung cancer cell line with KRAS mutations (EGFR wild-type)] to establish the orthotopic lung cancer models. Seven-week-old male NOD/SCID mice were anesthetized by continuous flow of 2-3% isoflurane. A549-Luc cells (2×10^6) suspended in 40 μl of PBS were injected percutaneously into the right lung of the mice using 500 μl Gas-Tight syringes with 27G top winged infusion set. These mice were then given endotoxon-free luciferse substrate and photographed using IVIS-200 imaging system once a week. When lung tumor nodules were detected, the mice were oral administration of JMF3086 (5 days/week), intraperitoneally administered cisplatin (once a week) or a combination of JM3086 and cisplatin for additional two weeks (FIG. 3A).

[3] = system: AOM/DSS-induced CRC; assay: Animal model of AOM/DSS-induced CRC; assay type: in vivo, male C57BL/6 mice; conditions: single agent; JMF3086 25 mg/kg oral 5 days/week or oxaliplatin 5 mg/kg i.p. once a week, two weeks; FIG. 1B
Experimental: FIGS. 1A and 1B show the effect of a 3,5,N-trihydroxy-alkanamide derivative, JMF3086, combined with oxaliplatin on colitis-induced colorectal cancer in vivo. Mice were intraperitoneally injected with AOM (12.5 mg/kg) and maintained for 7 days, then subjected to 3 cycles of DSS treatment (1 cycle representing 5 days of 3.5% DSS followed by 14 days of H2O). […] Scale bars: 1 mm **P<0.01 versus vehicle.
AOM in conjunction with the additional DSS inflammatory stimulus results in tumor development that is restricted to the colon in mice (11, 12). This model is widely utilized to recapitulate human colorectal cancer because it results in inflammation and ulceration of the entire colon, similar to what is observed in patients (12). CRC was induced in male C57BL/6 mice via the intraperitoneal injection of AOM (12.5 mg/kg) while the mice were maintained with a regular diet and drinking water for 7 days and then subjecting to 3 cycles of DSS treatment, with each cycle consisting of the administration of 3.5% DSS for 5 days followed by a 14-day recovery period with regular water (FIG. 1A). […]

[4] = system: HT29-Luciferase expressing cells; assay: Experimental colorectal cancer metastasis to the liver (HT29-Luciferase cells injected into spleen, IVIS imaging); assay type: in vivo, NOD/SCID mice; conditions: single agent; JMF3086 oral 5 days/week, oxaliplatin or irinotecan i.p. once a week, two weeks; FIGS. 2B and 2C
Experimental: Seven-week-old female NOD/SCID mice were obtained from the National Laboratory Animal Center. The mice were anesthetized by continuous flow of 2-3% isoflurane. To generate liver metastases derived from human colorectal cancer cells in mouse models, HT29-Luciferase expressing cells (1×10^6) were suspended in 100 μl PBS and injected into the spleen of mice. After one-week recovery, the mice were randomized into vehicle and treatment group. […] Mice were then given endotoxon-free luciferse substrate and photographed by IVIS imaging system (Xenogen) once a week. Tumors in spleen and liver were collected and weighed after sacrificed.

[5] = system: colorectal cancer cells (HCT116); assay: Experimental colorectal cancer metastasis to the lung (HCT116 injected via tail vein); assay type: in vivo, nude mice; conditions: JMF3086 100 mg/kg; FIG. 2E
Experimental: Besides, to examine the anti-metastatic activity of JMF3086, colorectal cancer cells (HCT116) were intravenously injected into nude mice via the tail vein (FIG. 2D). JMF3086 (100 mg/kg) reduced lung tumor nodules by macroscopic observation (FIG. 2E), indicating its inhibition on lung metastasis.

[6] = system: angiogenesis (neovessel formation in matrigel plugs); assay: Subcutaneous matrigel plug angiogenesis assay with conditioned medium of hypoxic HCT116 cells; assay type: in vivo, nude mice; conditions: HCT116 treated with 30 μM JMF3086 for 20 hours, hypoxia 4 hours; plugs after 14 days; FIG. 2F
Experimental: Angiogenesis is an essential step of tumor growth and metastasis (13). To determining the effect of JMF3086 on angiogenesis, HCT116 cells treated with 30 μM JMF3086 for 20 hours were exposed to hypoxia for 4 hours, then conditional medium was collected and subcutaneous matrigel plug assay was conducted by injecting of 75 μl conditional medium mixed with 425 μl matrigel and 50 U heparin/ml into nude mice (5 mice/group). Mice were sacrificed and dissected after 14 days. Matrigel plug retrieved from mice were photographed. Quantification of neovessel formation in matrigel plugs were estimated using Drabkin reagent kit 525.

[7] = system: H3K27-Ac binding to gene promoters in HCT116; assay: ChIP-on-chip assay of H3K27-Ac in HCT116 cells; assay type: cell-based, human
Experimental: (§1) Colorectal cancer cells (HCT116) were treated with 30 μM JMF3086 for 24 hours, ChIP assays using control Rabbit IgG (sc-2027; Santa Cruz) or anti-H3K27-ac antibody (#4353; Cell Signaling) were performed as previously described (14).
ChIP-on-chip assays were performed in the Microarray and Gene Expression Analysis Core Facility of the National Yang-Ming University VGH Genome Research Center in Taiwan using the SurePrint G3 Human Promoter 1×1M Kit (Agilent Technologies) after DNA was further purified through phenol/chloroform/isoamyl alcohol extraction and ethanol precipitation. Genes with two-fold down-regulation or up-regulation of H3K27-Ac in log-ratio after JMF 3086 treatment were regarded as significance.

[8] = system: bindings of acetyl-H3K27, CBP, HDAC1 and HDAC3 to promoter; assay: Quantitative ChIP (qChIP) assay of promoter binding in HCT116 cells; assay type: cell-based, human; conditions: FIG. 5D
Experimental: FIGS. 5A to 5D show genome-wide analysis of target genes in 3,5,N-trihydroxy-alkanamide derivative-treated colorectal cancer cells. […] Ingenuity Pathways Analysis (IPA) analysis predicted that the genes associated with apoptosis were regulated by NR3C1. P=4.30E-37. […] The molecular network has a P-score (−log10 (p-value)) of 48. […] Data were analyzed by the Q-PCR and plotted as percent (%) of input DNA. *P<0.05, **P<0.01 versus basal, two-sided Student t test.
as §1
To further investigate these differential effects of JMF3086, the bindings of acetyl-H3K27, CBP, HDAC1 and HDAC3 to promoter were examined by quantitative ChIP (qChIP) assays. JMF3086 reduced the bindings of acetyl-H3K27 and CBP to the promoters of TNF-α, CD166, COX-2, BCL2, CXCL1, CXCL2, EpCAM, CD44, Cyclin D1 and MCL1, but increased those of HDAC1 and HDAC3 to the promoters (FIG. 5D). In contrast, JMF3086 increased the bindings of acetyl-H3K27 and CBP to the promoters of TIMP3, BMP2 and p53 but decreased those of HDAC1 and HDAC3 to their promoters (FIG. 5D).

[9] = HCT116, 30 μM, 24 hours, FIG. 5C

For `CCC(C)(C)C(=O)O[C@H]1C[C@@H](C)C=C2C=C[C@H](C)[C@H](CC[C@@H](O)C[C@@H](O)CC(=O)NO)[C@H]21` [JMF3171, (3R,5R)-7-{(1S,2S,6R,8S,8aR)-hexahydro-2,6-dimethyl-8-[2-dimethylbutyryloxy]naphthalenyl}-3,5-dihydroxy-N-hydroxyheptanamide], the “cytotoxicity / cell viability” value [1] was “cytotoxic”.

For `N.N.[Cl][Pt][Cl]` [cisplatin, reference compound], the “lung cancer development (luciferase activity, IVIS)” value [2] was “ineffectively inhibited”.

With `CCC(C)C(=O)O[C@H]1C[C@@H](C)C=C2C=C[C@H](C)[C@H](CC[C@@H](O)C[C@@H](O)CC(=O)NO)[C@H]21` (stereo partly drawn) [JMF3086, (3R,5R)-7-{(1S,2S,6R,8S,8aR)-hexahydro-2,6-dimethyl-8-[2-methylbutyryloxy]naphthalenyl}-3,5-dihydroxy-N-hydroxyheptanamide] the “number of tumors and sizes” value [3] was “modestly reduced”, the “liver metastasis (luciferase activity, IVIS)” value (“liver metastasis” below) [4] was “modestly inhibited” and the “lung tumor nodules by macroscopic observation” value [5] was “reduced”. For the same compound, the “angiogenesis induced by conditioned medium from HCT116 cells under hypoxia (matrigel plug)” value [6] was “inhibited”, the “lung cancer development (luciferase activity, IVIS)” value [2] was “ineffectively inhibited” and the “cytotoxicity / cell viability” value [1] was “cytotoxic”. For the same compound, the “number of genes with altered binding of H3K27-acetylation” value ([7]; HCT116, 30 μM JMF3086, 24 hours) was “more than 10,000 genes”, the “mRNA expression of genes of inflammation and proliferation, stemness of cancer, and anti-apoptosis” value ([7]; HCT116, 30 μM, 24 hours) was “reduced” and the “mRNA expression of tumor suppressors” value ([7]; HCT116, 30 μM, 24 hours) was “increased”. The “binding of H3K27-Ac to the gene promoters of inflammation and proliferation, stemness of cancer, and anti-apoptosis” value [7, 9] was “inhibited”, the “binding of H3K27-Ac to the gene promoters of tumor suppressors” value [7, 9] was “increased” and the “bindings of HDAC1 and HDAC3 to the promoters of TIMP3, BMP2 and p53” value [8] was “decreased”. For the same compound, the “bindings of HDAC1 and HDAC3 to the promoters of TNF-α, CD166, COX-2, BCL2, CXCL1, CXCL2, EpCAM, CD44, Cyclin D1 and MCL1” value [8] was “increased”, the “bindings of acetyl-H3K27 and CBP to the promoters of TIMP3, BMP2 and p53” value [8] was “increased” and the “bindings of acetyl-H3K27 and CBP to the promoters of TNF-α, CD166, COX-2, BCL2, CXCL1, CXCL2, EpCAM, CD44, Cyclin D1 and MCL1” value [8] was “reduced”.

With `CC(C)c1c(C(=O)Nc2ccccc2)c(-c2ccccc2)c(-c2ccc(F)cc2)n1CC[C@@H](O)C[C@@H](O)CC(=O)NO` [JMF3173] the “cytotoxicity / cell viability” value ([1]; CRC and various cancer cell lines, 72 hours, MTT, FIG. 4) was “cytotoxic”.

`CCc1c2c(nc3ccc(OC(=O)N4CCC(N5CCCCC5)CC4)cc13)-c1cc3c(c(=O)n1C2)COC(=O)[C@]3(O)CC` [irinotecan] was tested, and the “liver metastasis” value [4] was “modestly inhibited”.

With `O=C1[O][Pt]2([NH][C@@H]3CCCC[C@H]3[NH]2)[O]C1=O` [oxaliplatin, reference compound] the “number of tumors and sizes” value [3] was “modestly reduced” and the “liver metastasis” value [4] was “modestly inhibited”.
